Measurements taken from US20210315881A1, “COMBINATION OF HISTONE DEACETYLASE INHIBITOR AND PROTEIN KINASE INHIBITOR AND PHARMACEUTICAL USE THEREOF” (SHENZHEN CHIPSCREEN BIOSCIENCES CO., LTD., priority 2018, published 2021).

What was measured:
Bel-7404 cells [1] = test: MTS cell viability assay; format: cell-based, human; conditions: Bel-7404, monotreatment, 120 hours, dose-dependent
Procedure: (§1) Human hepatoma cell line Bel-7402 and Bel-7404 were purchased from the Cell Resource Center of Shanghai Institutes for Biological Sciences, CAS, and routinely cultured at 37° C. under 5% CO2, in a culture medium of RPMI-1640 (Gibco) containing 10% fetal bovine serum (FBS; Gibco) and 1% Penicillin-Streptomycin (HyClone). Trypsin was purchased from Gibco. Crystal violet, RNase A (10 mg/mL) solution, propidium iodide (PI), Triton X-100 were purchased from Sangon Biotech (Shanghai) Co., Ltd. MTS cell viability assay kits, Caspase-Glo 3/7 assay kits were purchased from Promega. Nude mice were purchased from Guangdong Medical Laboratory Animal Center.
(§2) The Bel-7402, Bel-7404 cell lines were digested by trypsin, collected and counted, and then seeded in a 96-well cell culture plate at the density of 3,000 cells/180 μL in each well, and cultured at 37° C. under 5% CO2. […] After incubation at 37° C. for about 1 hour, the absorbance of each well was read at 490 nm wavelength with a microplate reader. The OD490-T value of each administered well and the OD490-T0 value of the negative control well after background deduction were obtained by subtracting OD490-BLK from the absorbance reading value of each well.
(§3) The relative survival rate of the cells in each administered well was calculated according to the following formula: […]

Bel-7402 cells = test: MTS cell viability assay; format: cell-based, human; conditions: Bel-7402, monotreatment, 120 hours, dose-dependent
Procedure: as §1, §2, §3

Bel-7404 cell xenograft = test: Tumor cell xenograft model in nude mice; format: in vivo; conditions: 2.5 mg/kg Chiauranib, intragastrically once a day, 33 days, vs solvent control
Procedure: The cells of Bel-7404 were cultured to expend to a large amount, and maintained at a log phase state. After the number of the cells reached the required amount, they were digested with trypsin, collected, washed twice with a large amount of PBS to remove the trypsin and serum, and centrifuged at 800 rpm for 10 min at room temperature and the cell supernatants were discarded. The cells were resuspended in the FBS-free RPIM-1640 culture medium, and adjusted the cell density to 10^7/300 μL.
Under aseptic conditions, each nude mouse was injected subcutaneously on the back with 300 μL/injection, one injection per nude mouse. A 1 mL disposable medical syringe for injection was used, and the injection site and direction were roughly same for each nude mouse.
One day after cell implanting, the nude mice were randomly divided into four groups (namely, solvent control group, Chiauranib 2.5 mg/kg group, Chidamide 20 mg/kg group and the combined administration group), housed in separate cages after marked, administered in groups and tumor formation of each mouse was observed every day. […] Every 2 days, the longest diameter of the tumor (length) and the widest diameter (width) perpendicular to the longest diameter were measured with a vernier caliper. The tumor volume was calculated by the formula TS=length×(width)^2/2 and recorded. […]

Bel-7404 cells [2] = test: Cell cycle analysis by flow cytometry with PI staining; format: cell-based, human; conditions: Bel-7404, 3 μM Chiauranib, 48 hours
Procedure: as §1
The cells of Bel-7404 at the log phase stage were digested by trypsin, collected and counted. The cells were seeded in a 6-well plate at the density of 10^6 cells per well in a total of 18 wells. […] The fixed samples were allowed to stand at 4° C. for more than 12 hours, and analyzed by the flow cytometry assay within 1 week.
PBS, 10 mg/mL PI stock solution, 10 mg/mL RNase A solution and Triton X-100 were mixed at a ratio of 1000:5:2:1 to form a working dye solution. […] The filtrate was analyzed for cell cycles by the flow cytometry assay (each sample counted 20,000 cells).

SMMC-7721 cells = test: Colony forming assay (crystal violet); format: cell-based; conditions: SMMC-7721, Chiauranib monotreatment 5 μM, 2-3 weeks
Procedure: (§4) The SMMC-7721, Bel-7404 cell lines at the log phase stage were digested by trypsin, collected and counted, then seeded in a 6-well cell culture plate at the density of 500 cells/1.8 mL in each well, and cultured at 37° C. under 5% CO2. After cultured overnight, the cells were administered according to the grouping and the final concentration dosages shown in FIG. 2 (the final volume of each well after administration was 2 mL). The culture media and drugs were replaced every 3 days to keep the culture system and the dosage for each well stable.
After cultured for 2-3 weeks, when there were visible cell colonies in the culture plate, the culture was terminated. The supernatants were discarded, and the plate was washed carefully with PBS twice. 1 mL of 75% ethanol solution was added to each well to fix the cells, and the fixative solution was discarded after 15 min. Then the cells were stained for 15 min by adding 1 mL of crystal violet solution to each well, and the staining solution was washed slowly with running water and air dried. The stained positive cell colonies in each well of the culture plate were photographed to compare their density.

Bel-7404 cells [3] = test: Cell apoptosis by Caspase 3/7 assay; format: cell-based, human; conditions: Bel-7404, 3 μM Chiauranib monotreatment, 48 hours
Procedure: as §1
The cells of Bel-7404 at the log phase stage were digested by trypsin, collected and counted. The cells were seeded in a 96-well plate at density of 2000 cells per well in a total of 18 wells. […]
The 96-well plates containing the treated cells were taken out of the incubator and equilibrated to room temperature. […] The […] value of each sample was measured by a luminometer. The […] value can directly reflect the proportion of apoptotic cells in each well, and can be used to calculate and compare the cell viability of the different groups.

Bel-7404 cells [4] = test: Colony forming assay (crystal violet); format: cell-based, human; conditions: Bel-7404, Chiauranib monotreatment 3 μM, 2-3 weeks
Procedure: as §1, §4
After cultured for 2-3 weeks, when there were visible cell colonies in the culture plate, the culture was terminated. The supernatants were discarded, and the plate was washed carefully with PBS twice. […]

Compound: COc1ccc2c(Oc3ccc4c(C(=O)Nc5ccccc5N)cccc4c3)ccnc2c1 [Chiauranib]
- inhibitory effect on tumor cell proliferation (survival rate) (Bel-7404 cells [1]): a certain inhibitory effect on tumor cell proliferation
- inhibitory effect on tumor cell proliferation (survival rate) (Bel-7402 cells): a certain inhibitory effect on tumor cell proliferation
- tumor volume of tumor-bearing nude mice (Bel-7404 cell xenograft): inhibited to a certain extent
- cells in G2/M phase and polyploid cells (Bel-7404 cells [2]): slightly increased
- formation of cell colonies (SMMC-7721 cells): relatively significant effect on the formation of cell colonies
- proportion of apoptotic cells (Bel-7404 cells [3]): increased the proportion of apoptotic cells to a certain extent
- formation of cell colonies (Bel-7404 cells [4]): affected somewhat on the formation of cell colonies
